Test results as given in US8962674B2 (Tokyo Institute of Technology, priority 2006, dated 2015).

| melting point [°C] | Compound |
| --- | --- |
| 116 to 120 | COc1ccc(/C=C/C(=O)CC(=O)/C=C/c2cc(O)ccc2OC)cc1O [CU179, (1E,6E)-1-(3-hydroxy-4-methoxyphenyl)-7-(5-hydroxy-2-methoxyphenyl)hepta-1,6-diene-3,5-dione] |
| 124 to 130 | COc1cc(/C=C/C(=O)CC(=O)/C=C/c2ccc(Cl)cc2Cl)ccc1O [CU144, (1E,6E)-1-(2,4-dichlorophenyl)-7-(4-hydroxy-3-methoxyphenyl)hepta-1,6-diene-3,5-dione] |
| 158 to 162 | COc1ccc(/C=C/C(=O)CC(=O)/C=C/c2ccc(SC)cc2)cc1O [CU216, (1E,6E)-1-(3-hydroxy-4-methoxyphenyl)-7-(4-methylthiophenyl)hepta-1,6-diene-3,5-dione] |
| 136 to 139 | COc1cc(/C=C/C(=O)CC(=O)/C=C/c2c(OC)cccc2OC)ccc1O [CU103, (1E,6E)-1-(2,6-dimethoxyphenyl)-7-(4-hydroxy-3-methoxyphenyl)hepta-1,6-diene-3,5-dione] |
| 45 to 46 | COc1cc(/C=C/C(=O)CC(=O)/C=C/c2ccc(Oc3ccccc3)cc2)ccc1O [CU004, (1E,6E)-1-(4-hydroxy-3-methoxyphenyl)-7-(4-phenoxyphenyl)hepta-1,6-diene-3,5-dione] |
| 102 to 110 | O=C(/C=C/c1ccc(O)cc1)CC(=O)/C=C/c1ccccc1N1CCN(CCO)CC1 [CU501, (1E,6E)-1-{2-[4-(2-hydroxyethyl)piperazin-1-yl]phenyl}-7-(4-hydroxyphenyl)hepta-1,6-diene-3,5-dione] |
| 240 to 246 | O=C(/C=C/c1ccc(O)cc1)CC(=O)/C=C/c1ccc2oc(=O)ccc2c1 [CU445, (1E,6E)-1-(4-hydroxyphenyl)-7-(coumarin-6-yl)hepta-1,6-diene-3,5-dione] |
| 180 to 182 | O=C(/C=C/c1ccc(O)cc1)CC(=O)/C=C/c1ccccn1 [CU233, (1E,6E)-1-(4-hydroxyphenyl)-7-(pyridin-2-yl)hepta-1,6-diene-3,5-dione] |
| 108 to 113 | COc1ccc(/C=C/C(=O)CC(=O)/C=C/c2ccc(O)c(OC)c2)c(O)c1 [CU256, (1E,6E)-1-(2-hydroxy-4-methoxyphenyl)-7-(4-hydroxy-3-methoxyphenyl)hepta-1,6-diene-3,5-dione] |
| 90 to 96 | COc1ccc(/C=C/C(=O)CC(=O)/C=C/c2ccccc2O)cc1O [CU084, (1E,6E)-1-(2-hydroxyphenyl)-7-(3-hydroxy-4-methoxyphenyl)hepta-1,6-diene-3,5-dione] |
| 169 to 175 | COc1cccc(/C=C/C(=O)CC(=O)/C=C/c2ccc(O)cc2)c1O [CU249, (1E,6E)-1-(2-hydroxy-3-methoxyphenyl)-7-(4-hydroxyphenyl)hepta-1,6-diene-3,5-dione] |
| 76 to 86 | COc1cc(N(C)C)ccc1/C=C/C(=O)CC(=O)/C=C/c1ccc(N(C)C)cc1OC [CU410, (1E,6E)-1,7-bis(4-dimethylamino-2-methoxyphenyl)hepta-1,6-diene-3,5-dione] |
| 77 to 84 | O=C(/C=C/c1ccc(O)cc1)CC(=O)/C=C/c1ccccc1N1CCCCC1 [CU497, (1E,6E)-1-(4-hydroxyphenyl)-7-[2-(piperidin-1-yl)phenyl]hepta-1,6-diene-3,5-dione] |
| 163 to 165 | COc1ccc(/C=C/C(=O)CC(=O)/C=C/c2ccc3c(c2)OCCO3)cc1O [CU210, (1E,6E)-1-(2,3-dihydrobenzo[1,4]dioxin-6-yl)-7-(3-hydroxy-4-methoxyphenyl)hepta-1,6-diene-3,5-dione] |
| 100 to 103 | CCn1c2ccccc2c2cc(/C=C/C(=O)CC(=O)/C=C/c3ccc(OC)c(O)c3)ccc21 [CU108, (1E,6E)-1-(9-ethyl-9H-carbazol-3-yl)-7-(3-hydroxy-4-methoxyphenyl)hepta-1,6-diene-3,5-dione] |
| 148 to 152 | O=C(/C=C/c1ccc(O)cc1)CC(=O)/C=C/c1ccc2[nH]ncc2c1 [CU349, (1E,6E)-1-(4-hydroxyphenyl)-7-(1H-indazol-5-yl)hepta-1,6-diene-3,5-dione] |
| 169 to 171 | CSc1ccc(/C=C/C(=O)CC(=O)/C=C/c2ccc(O)cc2)cc1 [CU235, (1E,6E)-1-(4-hydroxyphenyl)-7-(4-methylthiophenyl)hepta-1,6-diene-3,5-dione] |
| 158 to 161 | COc1cc(/C=C/C(=O)CC(=O)/C=C/c2cn(Cc3ccccc3)c3ccccc23)ccc1O [CU416, (1E,6E)-1-(1-benzyl-1H-indol-3-yl)-7-(4-hydroxy-3-methoxyphenyl)hepta-1,6-diene-3,5-dione] |
| 232 to 237 | COc1cc(/C=C/C(=O)CC(=O)/C=C/c2c[nH]c3cccc([N+](=O)[O-])c23)ccc1O [CU462, (1E,6E)-1-(4-hydroxy-3-methoxyphenyl)-7-(4-nitro-1H-indol-3-yl)hepta-1,6-diene-3,5-dione] |
| 211 to 215 | O=C(/C=C/c1cccc2cc[nH]c12)CC(=O)/C=C/c1cccc2cc[nH]c12 [CU392, (1E,6E)-1,7-bis(1H-indol-7-yl)hepta-1,6-diene-3,5-dione] |

| melting point [°C] | Compound |
| --- | --- |
| 107 to 113 | CCN(CC)c1ccc(/C=C/C(=O)CC(=O)/C=C/c2ccc(N(CC)CC)cc2OCC=C(C)C)c(OCC=C(C)C)c1 [CU431, (1E,6E)-1,7-bis(4-diethylamino-2-prenyloxyphenyl)hepta-1,6-diene-3,5-dione] |
| 90 to 95 | COc1ccc(/C=C/C(=O)CC(=O)/C=C/c2ccc(O)cc2OC)cc1O [CU086, (1E,6E)-1-(4-hydroxy-2-methoxyphenyl)-7-(3-hydroxy-4-methoxyphenyl)hepta-1,6-diene-3,5-dione] |
| 193 to 196 | COc1cc(/C=C/C(=O)CC(=O)/C=C/c2ccc(OC)c3ccccc23)ccc1O [CU118, (1E,6E)-1-(4-hydroxy-3-methoxyphenyl)-7-(4-methoxynaphthalen-1-yl)hepta-1,6-diene-3,5-dione] |
| 120 to 130 | COc1ccc(/C=C/C(=O)CC(=O)/C=C/c2ccc(O)cc2Cl)cc1O [CU130, (1E,6E)-1-(2-chloro-4-hydroxyphenyl)-7-(3-hydroxy-4-methoxyphenyl)hepta-1,6-diene-3,5-dione] |
| 184 to 190 | O=C(/C=C/c1ccc(O)cc1)CC(=O)/C=C/c1ccc(O)c(Cl)c1 [CU042, (1E,6E)-1-(3-chloro-4-hydroxyphenyl)-7-(4-hydroxyphenyl)hepta-1,6-diene-3,5-dione] |
| 179 to 186 | O=C(/C=C/c1ccc(O)cc1)CC(=O)/C=C/c1cc(O)ccc1-c1ccccc1 [CU526, (1E,6E)-1-(4-hydroxybiphenyl-2-yl)-7-(4-hydroxyphenyl)hepta-1,6-diene-3,5-dione] |
| 180 to 188 | O=C(/C=C/c1ccc(O)cc1)CC(=O)/C=C/c1ccccc1-c1ccccc1 [CU472, (1E,6E)-1-(biphenyl-2-yl)-7-(4-hydroxyphenyl)hepta-1,6-diene-3,5-dione] |
| 183 to 186 | COc1ccc(/C=C/C(=O)CC(=O)/C=C/c2ccc(OCCCN(C)C)cc2)cc1O [CU241, (1E,6E)-1-[4-(3-dimethylaminopropoxy)phenyl]-7-(3-hydroxy-4-methoxyphenyl)hepta-1,6-diene-3,5-dione] |
| 161 to 165 | O=C(/C=C/c1cc(O)ccc1Br)CC(=O)CCc1ccc(O)cc1 [CU549, (E)-1-(2-bromo-5-hydroxyphenyl)-7-(4-hydroxyphenyl)hept-1-ene-3,5-dione] |
| 131 to 138 | COCOc1ccc(OC)cc1/C=C/C(=O)CC(=O)/C=C/c1cc(OC)ccc1O [CU456, (1E,6E)-1-(2-hydroxy-5-methoxyphenyl)-7-[5-methoxy-2-(methoxymethoxy)phenyl]hepta-1,6-diene-3,5-dione] |
| 250 to 254 | COc1cc(=O)oc2ccc(/C=C/C(=O)CC(=O)/C=C/c3ccc(O)cc3)cc12 [CU415, (1E,6E)-1-(4-hydroxyphenyl)-7-(4-methoxycoumarin-6-yl)hepta-1,6-diene-3,5-dione] |
| 161 to 167 | COc1ccc(/C=C/C(=O)CC(=O)/C=C/c2ccc(O)cc2)c(OC)c1 [CU072, (1E,6E)-1-(2,4-dimethoxyphenyl)-7-(4-hydroxyphenyl)hepta-1,6-diene-3,5-dione] |
| 132 to 138 | O=C(/C=C/c1ccc(O)cc1)CC(=O)/C=C/c1ccc(N2CCN(Cc3ccccc3)CC2)nc1 [CU332, (1E,6E)-1-[6-(4-benzylpiperazin-1-yl)pyridin-3-yl]-7-(4-hydroxyphenyl)hepta-1,6-diene-3,5-dione] |
| 156 to 158 | COc1cc(/C=C/C(=O)CC(=O)/C=C/c2cccc(OC)c2O)ccc1O [CU250, (1E,6E)-1-(2-hydroxy-3-methoxyphenyl)-7-(4-hydroxy-3-methoxyphenyl)hepta-1,6-diene-3,5-dione] |
| 147 to 152 | COc1ccc(/C=C/C(=O)CC(=O)/C=C/c2ccc(OC)c(O)c2)c(O)c1 [CU282, (1E,6E)-1-(2-hydroxy-4-methoxyphenyl)-7-(3-hydroxy-4-methoxyphenyl)hepta-1,6-diene-3,5-dione] |
| 185 to 192 | COc1cc(/C=C/C(=O)CC(=O)/C=C/c2ccc(O)cc2Cl)ccc1O [CU129, (1E,6E)-1-(2-chloro-4-hydroxyphenyl)-7-(4-hydroxy-3-methoxyphenyl)hepta-1,6-diene-3,5-dione] |
| 180 to 183 | O=C(/C=C/c1ccc(O)cc1)CC(=O)/C=C/c1cc(OCc2c(F)cccc2Cl)ccc1[N+](=O)[O-] [CU492, (1E,6E)-1-[5-(2-chloro-6-fluorobenzyloxy)-2-nitrophenyl]-7-(4-hydroxyphenyl)hepta-1,6-diene-3,5-dione] |
| 76 to 81 | COCOc1cccc(O)c1/C=C/C(=O)CC(=O)/C=C/c1ccc(O)c(OC)c1 [CU259, (1E,6E)-1-[2-hydroxy-6-(methoxymethoxy)phenyl]-7-(4-hydroxy-3-methoxyphenyl)hepta-1,6-diene-3,5-dione] |
| 74 to 80 | COc1cccc(/C=C/C(=O)CC(=O)/C=C/c2ccc(O)cc2)c1 [CU158, (1E,6E)-1-(4-hydroxyphenyl)-7-(3-methoxyphenyl)hepta-1,6-diene-3,5-dione] |
| 219 to 221 | COc1ccc(/C=C/C(=O)CC(=O)/C=C/c2ncc[nH]2)cc1O [CU151, (1E,6E)-1-(3-hydroxy-4-methoxyphenyl)-7-(1H-imidazol-2-yl)hepta-1,6-diene-3,5-dione] |
